From PubChem BioAssay AID328 (DTP/NCI, 2004)
“And” between values parts separate entries of the source, which are not always exact repeats. Equal values may be shown once. Inconclusive results and toxic doses are left out.

Tested on: BDF1 mice, P388 leukemia ip, median survival T/C
Assay: NCI In Vivo Anticancer Drug Screen. Data for tumor model P388 Leukemia (intraperitoneal) in B6D2F1 (BDF1) mice
Settings: endpoint: median survival time, higher = longer survival
In short: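 Steps: implant the tumour, treat one group with compound and another with vehicle, record survival, then divide treated by control.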

[1] = dose: 6.25 mg/kg/injection, schedule: Q01DX009 (ip), vehicle: saline
[2] = dose: 12.5 mg/kg/injection, schedule: Q01DX009 (ip), vehicle: saline
[3] = dose: 25.0 mg/kg/injection, schedule: Q04DX003 (ip), vehicle: saline
[4] = dose: 25.0 mg/kg/injection, schedule: Q01DX009 (ip), vehicle: saline
[5] = dose: 50.0 mg/kg/injection, schedule: Q01DX009 (ip), vehicle: saline
[6] = dose: 50.0 mg/kg/injection, schedule: Q04DX003 (ip), vehicle: saline
[7] = dose: 100.0 mg/kg/injection, schedule: Q04DX003 (ip), vehicle: saline
[8] = dose: 25.0 mg/kg/injection, schedule: Q01DX009 (ip), vehicle: saline with Tween-80
[9] = dose: 100.0 mg/kg/injection, schedule: Q04DX003 (ip), vehicle: Klucel (hydroxypropylcellulose) (HPC)
[10] = dose: 200.0 mg/kg/injection, schedule: Q04DX003 (ip), vehicle: Klucel (hydroxypropylcellulose) (HPC)
[11] = dose: 400.0 mg/kg/injection, schedule: Q04DX003 (ip), vehicle: Klucel (hydroxypropylcellulose) (HPC)
[12] = dose: 50.0 mg/kg/injection, schedule: Q01DX009 (ip), vehicle: saline with Tween-80
[13] = dose: 200.0 mg/kg/injection, schedule: Q01DX009 (ip), vehicle: saline with Tween-80
[14] = dose: 100.0 mg/kg/injection, schedule: Q01DX009 (ip), vehicle: saline with Tween-80
[15] = dose: 50.0 mg/kg/injection, schedule: Q04DX003 (ip), vehicle: saline with Tween-80
[16] = dose: 100.0 mg/kg/injection, schedule: Q04DX003 (ip), vehicle: saline with Tween-80
[17] = dose: 200.0 mg/kg/injection, schedule: Q04DX003 (ip), vehicle: saline with Tween-80
[18] = dose: 100.0 mg/kg/injection, schedule: Q04DX003 (ip), vehicle: saline sonified
[19] = dose: 200.0 mg/kg/injection, schedule: Q04DX003 (ip), vehicle: saline sonified
[20] = dose: 400.0 mg/kg/injection, schedule: Q04DX003 (ip), vehicle: saline sonified
[21] = dose: 200.0 mg/kg/injection, schedule: Q01DX009 (ip), vehicle: Klucel (hydroxypropylcellulose) (HPC)
[22] = dose: 400.0 mg/kg/injection, schedule: Q04DX003 (ip), vehicle: saline with Tween-80

## O.[NH-]C(Cc1ccc(O)cc1)C(=O)O.[Ni] (stereo unspecified)
[1]
  T/C: 98 % of control
[2]
  T/C: 107 % of control
[3]
  T/C: 100 % of control

## CN(C)Cc1ccc([N+](=O)[O-])cc1
[2]
  T/C: 116 % of control
[4]
  T/C: 119 % of control
[5]
  T/C: 104 % of control
[6]
  T/C: 107 % of control
[7]
  T/C: 90 % of control
dose: 200.0 mg/kg/injection, schedule: Q04DX003 (ip), vehicle: saline
  T/C: 107 % of control

## COc1cc(-c2ccc(O)cc2)c(OC)c(O)c1-c1ccc(O)c(O)c1
dose: 1.25 mg/kg/injection, schedule: Q01DX009 (ip), vehicle: Klucel (hydroxypropylcellulose) (HPC)
  T/C: 97 % of control
dose: 2.5 mg/kg/injection, schedule: Q01DX009 (ip), vehicle: Klucel (hydroxypropylcellulose) (HPC)
  T/C: 96 % of control
dose: 5.0 mg/kg/injection, schedule: Q01DX009 (ip), vehicle: Klucel (hydroxypropylcellulose) (HPC)
  T/C: 98 % of control
dose: 10.0 mg/kg/injection, schedule: Q01DX009 (ip), vehicle: Klucel (hydroxypropylcellulose) (HPC)
  T/C: 95 % of control
dose: 20.0 mg/kg/injection, schedule: Q01DX009 (ip), vehicle: Klucel (hydroxypropylcellulose) (HPC)
  T/C: 97 % of control
dose: 40.0 mg/kg/injection, schedule: Q01DX009 (ip), vehicle: Klucel (hydroxypropylcellulose) (HPC)
  T/C: 97 % of control

## CN1CCC(C(O)c2ccccc2)CC1 (stereo unspecified)
dose: 100.0 mg/kg/injection, schedule: Q01DX001 (ip), vehicle: Klucel (hydroxypropylcellulose) (HPC)
  T/C: 105 % of control
dose: 200.0 mg/kg/injection, schedule: Q01DX001 (ip), vehicle: Klucel (hydroxypropylcellulose) (HPC)
  T/C: 105 % of control

## COc1cc([C@@H]2c3cc4c(cc3[C@H](SC(=N)N)[C@H]3COC(=O)[C@H]23)OCO4)cc(OC)c1OC
dose: 1.4 mg/kg/injection, schedule: Q01DX010 (ip), vehicle: carboxymethylcellulose (CMC)
  T/C: 105 % of control
dose: 2.8 mg/kg/injection, schedule: Q01DX010 (ip), vehicle: carboxymethylcellulose (CMC)
  T/C: 100 % of control
dose: 5.6 mg/kg/injection, schedule: Q01DX010 (ip), vehicle: carboxymethylcellulose (CMC)
  T/C: 110 % of control
dose: 18.0 mg/kg/injection, schedule: Q01DX009 (ip), vehicle: Klucel (hydroxypropylcellulose) (HPC)
  T/C: 152 % of control
dose: 27.0 mg/kg/injection, schedule: Q01DX009 (ip), vehicle: Klucel (hydroxypropylcellulose) (HPC)
  T/C: 171 % of control

## COc1ccccc1C(c1ccccc1OC)N(C)C(C)(C)CO
dose: 6.25 mg/kg/injection, schedule: Q01DX009 (ip), vehicle: saline with Tween-80
  T/C: 100 % of control
dose: 12.5 mg/kg/injection, schedule: Q01DX009 (ip), vehicle: saline with Tween-80
  T/C: 91 % of control
[8]
  T/C: 91 % of control

## Brc1c(-c2ccccc2)cc(-c2ccccc2)cc1-c1ccccc1
[9]
  T/C: 108 % of control
[10]
  T/C: 95 % of control
[11]
  T/C: 95 % of control

## COC(=O)C(Cl)(Cl)N=Nc1c(Cl)cc(Cl)c(C)c1Cl
[8]
  T/C: 119 % of control
[12]
  T/C: 124 % of control
[13]
  T/C: 89 % of control

## CC[C@@H]1C[C@H]2CC3c4c(c5cc(OC)ccc5n4C)CCN(C2)C31
[12]
  T/C: 102 % of control
[14]
  T/C: 105 % of control
[13]
  T/C: 102 % of control

## O=S(=O)(O)O.[Ga]
dose: 8.25 mg/kg/injection, schedule: Q01DX009 (ip), vehicle: saline sonified
  T/C: 100 % of control
[15]
  T/C: 90 % of control
[16]
  T/C: 95 % of control
dose: 134.0 mg/kg/injection, schedule: Q04DX003 (ip), vehicle: saline with Tween-80
  T/C: 92 % of control
[17]
  T/C: 123 % of control
dose: 300.0 mg/kg/injection, schedule: Q04DX003 (ip), vehicle: saline with Tween-80
  T/C: 96 % of control

## Cc1nc2c(NC(=O)CCl)nn(C)c2nc1C
dose: 25.0 mg/kg/injection, schedule: Q04DX003 (ip), vehicle: saline with Tween-80
  T/C: 105 % of control
[15]
  T/C: 110 % of control
[16]
  T/C: 95 % of control

## CCCCCCCCCCCCCCCCNc1cccc2ccccc12
[18]
  T/C: 86 % of control
[19]
  T/C: 104 % of control
[20]
  T/C: 95 % of control

## Nc1nc(N)c(-c2ccc(Cl)c(Cl)c2)c(COc2cccc(CNC(=O)c3cccc(S(=O)(=O)F)c3)c2)n1
dose: 132.0 mg/kg/injection, schedule: Q04DX003 (ip), vehicle: Klucel (hydroxypropylcellulose) (HPC)
  T/C: 109 % of control
[21]
  T/C: 150 % of control
[10]
  T/C: 119 % of control
dose: 300.0 mg/kg/injection, schedule: Q01DX009 (ip), vehicle: Klucel (hydroxypropylcellulose) (HPC)
  T/C: 155 % of control

## c1csc(C2Nc3ccccc3N2)c1
[12]
  T/C: 105 % of control
[14]
  T/C: 99 % of control
[13]
  T/C: 119 % of control

## COC(=O)c1cc(OC)cc(OC)c1
dose: 100.0 mg/kg/injection, schedule: Q04DX003 (ip), vehicle: other
  T/C: 100 % of control
dose: 200.0 mg/kg/injection, schedule: Q04DX003 (ip), vehicle: other
  T/C: 113 % of control
dose: 400.0 mg/kg/injection, schedule: Q04DX003 (ip), vehicle: other
  T/C: 109 % of control

## NC(C(=O)O)C(=O)c1ccccc1 (stereo unspecified)
[18]
  T/C: 100 % of control
[19]
  T/C: 100 % of control
[20]
  T/C: 100 % of control

## O=C(/C=C(/c1ccccc1)P(=O)(c1ccccc1)c1ccccc1)c1ccccc1
[14]
  T/C: 100 % of control
[13]
  T/C: 95 % of control
dose: 400.0 mg/kg/injection, schedule: Q01DX009 (ip), vehicle: saline with Tween-80
  T/C: 100 % of control

## CCC1=CCN2CCC34c5cc(C6(C(=O)OC)CC7CC(CC)CN(CCc8c6[nH]c6ccccc86)C7)c(OC)cc5N(C)C3C(O)(C(=O)OC)C(OC(C)=O)C1C24 (stereo unspecified)
dose: 0.03 mg/kg/injection, schedule: Q01DX010 (ip), vehicle: saline
  T/C: 100 % of control
dose: 0.06 mg/kg/injection, schedule: Q01DX010 (ip), vehicle: saline
  T/C: 104 % of control
dose: 0.13 mg/kg/injection, schedule: Q01DX010 (ip), vehicle: saline
  T/C: 95 % of control
dose: 0.25 mg/kg/injection, schedule: Q01DX010 (ip), vehicle: saline
  T/C: 100 % of control
dose: 0.5 mg/kg/injection, schedule: Q01DX010 (ip), vehicle: saline
  T/C: 86 % of control

## O=C(O)C1OC1C(=O)O (stereo unspecified)
dose: 75.0 mg/kg/injection, schedule: Q01DX009 (ip), vehicle: saline
  T/C: 90 % of control
dose: 150.0 mg/kg/injection, schedule: Q01DX009 (ip), vehicle: saline
  T/C: 100 % of control
dose: 300.0 mg/kg/injection, schedule: Q01DX009 (ip), vehicle: saline
  T/C: 100 % of control

## COc1cc(O)c2c(c1)OC(c1ccc(OC)c(O)c1)CC2=O (stereo unspecified)
dose: 12.5 mg/kg/injection, schedule: Q01DX009 (ip), vehicle: alcohol
  T/C: 117 % of control
dose: 50.0 mg/kg/injection, schedule: Q01DX009 (ip), vehicle: alcohol
  T/C: 109 % of control
dose: 100.0 mg/kg/injection, schedule: Q01DX009 (ip), vehicle: alcohol
  T/C: 92 % of control

## COc1ccccc1NC(=O)Oc1ccc(-c2ccccc2)cc1Br
[9]
  T/C: 95 % of control
[10]
  T/C: 87 % of control
[11]
  T/C: 91 % of control

## COC(=O)C(Br)C(OC)c1ccc(Cl)cc1 (stereo unspecified)
[16]
  T/C: 109 % of control
[17]
  T/C: 109 % of control
[22]
  T/C: 118 % of control

## O=C(O)c1sc(C(=O)O)c(-c2ccccc2)c1-c1ccccc1
[1]
  T/C: 89 % of control and 101 % of control
[2]
  T/C: 101 % of control and 115 % of control
[4]
  T/C: 87 % of control and 95 % of control
[12]
  T/C: 100 % of control
[5]
  T/C: 89 % of control and 100 % of control
[14]
  T/C: 100 % of control
[16]
  T/C: 90 % of control
[13]
  T/C: 100 % of control
[17]
  T/C: 95 % of control
[22]
  T/C: 104 % of control

## c1nc(N2CC2)c2cnn(C3CCCCO3)c2n1 (stereo unspecified)
[3]
  T/C: 109 % of control
[6]
  T/C: 100 % of control
dose: 100.0 mg/kg/injection, schedule: Q01DX009 (ip), vehicle: Klucel (hydroxypropylcellulose) (HPC)
  T/C: 95 % of control
[7]
  T/C: 100 % of control
dose: 150.0 mg/kg/injection, schedule: Q04DX003 (ip), vehicle: Klucel (hydroxypropylcellulose) (HPC)
  T/C: 120 % of control
[21]
  T/C: 116 % of control
dose: 225.0 mg/kg/injection, schedule: Q04DX003 (ip), vehicle: Klucel (hydroxypropylcellulose) (HPC)
  T/C: 120 % of control
